Data as given in patent US10125098B2, “Therapeutic compounds and methods of use thereof” (GENENTECH, INC., priority 2014, dated 2018).
Counter-ions that a name gives are not always drawn.

These compounds were tested against T1, hNav1.7 (Homo sapiens, UniProt Q15858) (assay: Tritiated compound binding (LBA) to membranes from cells expressing hNav1.7 and the β1 subunit, competitive binding). Settings: competitive binding vs 100 pM [3H]compound, 18 h, room temperature, membranes with hNav1.7 and β1 subunit.
T1 construct: expressed in transfected cells
T1 sequence (Q15858 1-1977 isoform Q15858-3): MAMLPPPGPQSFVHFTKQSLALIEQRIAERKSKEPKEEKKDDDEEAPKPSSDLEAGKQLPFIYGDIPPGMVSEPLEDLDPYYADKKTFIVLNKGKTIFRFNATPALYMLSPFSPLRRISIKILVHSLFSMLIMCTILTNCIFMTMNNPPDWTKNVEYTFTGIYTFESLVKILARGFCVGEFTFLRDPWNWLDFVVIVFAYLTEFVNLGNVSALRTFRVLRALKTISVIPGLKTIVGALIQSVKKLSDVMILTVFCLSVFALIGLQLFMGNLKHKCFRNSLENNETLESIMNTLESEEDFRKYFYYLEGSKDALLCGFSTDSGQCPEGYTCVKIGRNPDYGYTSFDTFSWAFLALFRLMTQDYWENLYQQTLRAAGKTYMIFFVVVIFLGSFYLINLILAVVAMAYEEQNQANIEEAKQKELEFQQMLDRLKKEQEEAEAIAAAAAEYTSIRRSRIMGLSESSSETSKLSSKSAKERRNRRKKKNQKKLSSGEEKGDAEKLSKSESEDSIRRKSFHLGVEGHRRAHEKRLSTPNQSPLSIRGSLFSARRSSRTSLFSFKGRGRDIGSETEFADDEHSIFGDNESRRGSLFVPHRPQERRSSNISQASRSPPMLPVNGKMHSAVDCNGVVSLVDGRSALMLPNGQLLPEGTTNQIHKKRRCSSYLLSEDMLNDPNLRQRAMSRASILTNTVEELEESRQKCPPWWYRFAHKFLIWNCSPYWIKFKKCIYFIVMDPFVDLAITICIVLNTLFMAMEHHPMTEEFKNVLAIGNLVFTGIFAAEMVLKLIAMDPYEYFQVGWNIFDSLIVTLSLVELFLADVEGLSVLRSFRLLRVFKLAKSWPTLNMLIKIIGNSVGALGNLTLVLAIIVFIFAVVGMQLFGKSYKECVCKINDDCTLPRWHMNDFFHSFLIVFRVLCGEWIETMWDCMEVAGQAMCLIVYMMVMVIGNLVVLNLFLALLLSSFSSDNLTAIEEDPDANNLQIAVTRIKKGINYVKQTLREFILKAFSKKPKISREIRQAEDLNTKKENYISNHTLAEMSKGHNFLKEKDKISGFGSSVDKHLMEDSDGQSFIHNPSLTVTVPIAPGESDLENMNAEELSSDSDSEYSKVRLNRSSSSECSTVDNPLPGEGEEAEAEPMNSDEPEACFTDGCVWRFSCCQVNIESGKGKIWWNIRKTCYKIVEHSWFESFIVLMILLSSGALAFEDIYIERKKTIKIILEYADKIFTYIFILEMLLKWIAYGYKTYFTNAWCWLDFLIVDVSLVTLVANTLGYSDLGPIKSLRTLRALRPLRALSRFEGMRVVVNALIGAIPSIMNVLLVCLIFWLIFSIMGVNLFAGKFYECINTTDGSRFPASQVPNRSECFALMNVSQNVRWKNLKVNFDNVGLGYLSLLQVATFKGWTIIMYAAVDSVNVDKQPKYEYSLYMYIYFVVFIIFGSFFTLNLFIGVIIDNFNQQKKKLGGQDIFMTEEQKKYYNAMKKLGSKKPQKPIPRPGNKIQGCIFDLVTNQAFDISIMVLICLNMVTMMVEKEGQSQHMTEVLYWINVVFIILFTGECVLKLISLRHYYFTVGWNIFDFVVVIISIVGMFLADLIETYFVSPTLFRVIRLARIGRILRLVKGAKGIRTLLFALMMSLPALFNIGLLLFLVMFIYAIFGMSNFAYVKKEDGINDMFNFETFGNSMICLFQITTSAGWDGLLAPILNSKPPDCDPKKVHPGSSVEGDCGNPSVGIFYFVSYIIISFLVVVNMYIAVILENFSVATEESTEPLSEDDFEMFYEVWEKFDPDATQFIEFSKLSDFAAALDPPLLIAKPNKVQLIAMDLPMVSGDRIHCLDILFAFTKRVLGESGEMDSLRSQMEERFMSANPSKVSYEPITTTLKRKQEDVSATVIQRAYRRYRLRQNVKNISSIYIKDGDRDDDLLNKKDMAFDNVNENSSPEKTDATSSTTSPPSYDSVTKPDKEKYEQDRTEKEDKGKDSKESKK
T1 sequence (Q07699 19-218 partner): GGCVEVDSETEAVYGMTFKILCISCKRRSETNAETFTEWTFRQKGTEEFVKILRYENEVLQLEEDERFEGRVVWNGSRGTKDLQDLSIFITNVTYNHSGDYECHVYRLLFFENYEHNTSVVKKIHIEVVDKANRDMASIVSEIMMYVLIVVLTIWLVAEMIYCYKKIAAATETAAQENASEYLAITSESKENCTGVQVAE
Description: Tritiated Compound Binding to Membranes
Isolated from Cells that Heterologously Express hNav1.7 and the β1 Subunit
Preparation of membranes containing recombinantly expressed sodium channels: Frozen recombinant cell pellets were thawed on ice and diluted to 4 times the cell pellet weight with ice cold 50 mM Tris HCl, pH 7.4 buffer. The cell suspensions were homogenized on ice using a motorized glass dounce homogeniser. […] The supernatants were collected and centrifuged at 10000×g at 4° C. for 50 min. The pellets were then re-suspended in 100 mM NaCl, 20 mM Tris HCl, pH 7.4 buffer containing 1% v/v protease inhibitors (Calbiochem) and re-homogenized on ice. The homogenized membranes were then processed through a syringe equipped with a 26 gauge needle. Protein concentrations were determined by Bradford Assay and the membranes were stored at −80° C.
Saturation experiments. A representative compound of formula (I) having a methyl group was tritiated. Three tritiums were incorporated in place of methyl hydrogens to generate [^3H]compound. Binding of this radioligand was performed in 5 mL borosilicate glass test tubes at room temperature. Binding was initiated by adding membranes to increasing concentrations of [^3H]compound in 100 mM NaCl, 20 mM Tris HCl, pH 7.4 buffer containing 0.01% w/v bovine serum albumin (BSA) for 18 h. Non-specific binding was determined in the presence of 1 μM unlabeled compound. After 18 h, the reactants were filtered through GF/C glass fiber filters presoaked in 0.5% w/v polyethylene imine. […] [^3H]compound bound to filters was quantified by liquid scintillation counting.
Binding reactions were performed in 96-well polypropylene plates at room temperature for 18 h. In 360 μL, membranes were incubated with 100 pM [^3H]compound and increasing concentrations of Test Compound. Non-specific binding was defined in the presence of 1 μM unlabeled compound. Reactions were transferred and filtered through 96-well glass fiber/C filter plates presoaked with 0.5% polyethylene imine. […] Bound radioactivity was determined by liquid scintillation counting.
Data Analysis: For saturation experiments, non-specific binding was subtracted from total binding to provide specific binding and these values were recalculated in terms of pmol ligand bound per mg protein. Saturation curves were constructed and dissociation constants were calculated using the single site ligand binding model: Beq=(Bmax*X)/(X+Kd), where Beq is the amount of ligand bound at equilibrium, Bmax is the maximum receptor density, Kd is the dissociation constant for the ligand, and X is the free ligand concentration. For competition studies percent inhibition was determined and IC50 values were calculated using a 4 parameter logistic model (% inhibition=(A+((B−A)/(1+((x/C)^D)))) using XLfit, where A and B are the maximal and minimum inhibition respectively, C is the IC50 concentration and D is the (Hill) slope.
With `O=C(O)[C@@H]1CCCN1C(=O)c1cc(C2CC2)c(OC2C3CC4CC2CC(Cl)(C4)C3)cc1F` (single isomer, unassigned) [Example 82] the IC50 was 1.1 µM.
`O=C(O)[C@@H]1CCCN1C(=O)c1cc(C2CC2)c(OCC2CCN(Cc3nc(-c4ccccc4Cl)no3)CC2)cc1F` [Example 29, (S)-1-(4-((1-((3-(2-chlorophenyl)-1,2,4-oxadiazol-5-yl)methyl)piperidin-4-yl)methoxy)-5-cyclopropyl-2-fluorobenzoyl)pyrrolidine-2-carboxylic acid trifluoroacetic acid salt] showed an IC50 of 0.629 µM.
Work on `O=C(O)[C@@H]1CCCN1C(=O)c1cc(Cl)c(COc2ccc(OC(F)(F)F)c(Cl)c2)cc1F` [Example 30, (S)-1-(5-chloro-4-((3-chloro-4-(trifluoromethoxy)phenoxy)methyl)-2-fluorobenzoyl)pyrrolidine-2-carboxylic acid] yielded an IC50 of 0.345 µM.
With `N#CC1(COc2cc(F)c(C(=O)N3CCC[C@H]3C(=O)O)cc2Cl)C2CC3CC(C2)CC1C3` (stereo partly drawn) [Example 31, (S)-1-(5-chloro-4-(((1S,3S,5S,7S)-2-cyanoadamantan-2-yl)methoxy)-2-fluorobenzoyl)pyrrolidine-2-carboxylic acid] the IC50 was greater than 10 µM.
`N#CC1(COc2cc(F)c(C(=O)N3CCC[C@H]3C(=O)O)cc2C2CC2)C2CC3CC(C2)CC1C3` (stereo partly drawn) [Example 32, (S)-1-(4-(((1S,3S,5S,7S)-2-cyanoadamantan-2-yl)methoxy)-5-cyclopropyl-2-fluorobenzoyl)pyrrolidine-2-carboxylic acid] gave an IC50 of 1.54 µM.
`CC(C)(C)OC(=O)N1CC(n2nccc2-c2cc(Cl)ccc2Oc2cc(F)c(C(=O)N3CCC[C@H]3C(=O)O)cc2F)C1` [Example 33, (S)-1-(4-(2-(1-(1-(tert-butoxycarbonyl)azetidin-3-yl)-1H-pyrazol-5-yl)-4-chlorophenoxy)-2,5-difluorobenzoyl)pyrrolidine-2-carboxylic acid] gave an IC50 greater than 10 µM.
For `O=C(O)[C@@H]1CCCN1C(=O)c1cc(F)c(Oc2ccc(Cl)cc2-c2ccnn2C2CNC2)cc1F` [Example 34, (S)-1-(4-(2-(1-(azetidin-3-yl)-1H-pyrazol-5-yl)-4-chlorophenoxy)-2,5-difluorobenzoyl)pyrrolidine-2-carboxylic acid trifluoroacetic acid salt], the IC50 was greater than 10 µM.
In the case of `O=C(O)CNC(=O)c1cc(C2CC2)c(OCC23CC4CC(CC(C4)C2)C3)cc1F` [Example 35, 2-(4-(adamantan-1-ylmethoxy)-5-cyclopropyl-2-fluorobenzamido) acetic acid], the IC50 is reported as 7.83 µM.
`O=C(NC1(C(=O)O)CC1)c1cc(Cl)c(Oc2ccc(OC(F)(F)F)c(Cl)c2)cc1F` [Example 36, 1-(5-chloro-4-(3-chloro-4-(trifluoromethoxy)phenoxy)-2-fluorobenzamido)-cyclopropanecarboxylic acid] gave an IC50 greater than 10 µM.
Work on `O=C(O)[C@@H]1CCCN1C(=O)c1cc(Cl)c(Oc2ccc(OC(F)(F)F)c(Cl)c2)cc1F` [Example 37, (S)-1-(5-chloro-4-(3-chloro-4-(trifluoromethoxy)phenoxy)-2-fluorobenzoyl)-pyrrolidine-2-carboxylic acid] yielded an IC50 of 5.23 µM.
In the case of `O=C(O)[C@@H]1CCCN1C(=O)c1cc(C2CC2)c(O[C@@H]2CCCN(Cc3ccc(F)cc3Cl)C2)cc1F` [Example 38, (S)-1-(4-(((R)-1-(2-chloro-4-fluorobenzyl)piperidin-3-yl)oxy)-5-cyclopropyl-2-fluorobenzoyl)pyrrolidine-2-carboxylic acid trifluoroacetic acid salt], the IC50 is reported as 0.152 µM.
With `CC(c1cc(Cl)cc(Cl)c1)N1CCC(COc2cc(F)c(C(=O)N3CCC[C@H]3C(=O)O)cc2C2CC2)CC1` (stereo partly drawn) [Example 39, (2S)-1-(5-cyclopropyl-4-((1-(1-(3,5-dichlorophenyl)ethyl)piperidin-4-yl)methoxy)-2-fluorobenzoyl)pyrrolidine-2-carboxylic acid trifluoroacetic acid salt] the IC50 was 0.0436 µM.
`Cc1cc(C(=O)N2CCC[C@H]2C(=O)O)c(F)cc1OCC12CC3CC(CC(C3)C1)C2` [Example 40, (S)-1-(4-(adamantan-1-ylmethoxy)-2-fluoro-5-methylbenzoyl)pyrrolidine-2-carboxylic acid] gave an IC50 of 0.452 µM.
Compound `O=C(O)[C@@H]1CCCN1C(=O)c1cc(Cl)c(OCC23CC4CC(CC(C4)C2)C3)cc1F` [Example 41, (S)-1-(4-(adamantan-1-ylmethoxy)-5-chloro-2-fluorobenzoyl)pyrrolidine-2-carboxylic acid] has an IC50 of 0.64 µM.
Compound `C[C@]1(COc2cc(F)c(C(=O)N3CCC[C@H]3C(=O)O)cc2C2CC2)CC[C@@H](C(F)(F)F)CC1` [Example 42, cis-(S)-1-(5-cyclopropyl-2-fluoro-4-((1-methyl-4-(trifluoromethyl)-cyclohexyl)methoxy)benzoyl)pyrrolidine-2-carboxylic acid] has an IC50 of 0.231 µM.
`CC[C@H](C)[C@H](NC(=O)c1cc(C2CC2)c(OCC23CC4CC(CC(C4)C2)C3)cc1F)C(=O)O` [Example 43, (2S,3S)-2-(4-(adamantan-1-ylmethoxy)-5-cyclopropyl-2-fluorobenzamido)-3-methylpentanoic acid] gave an IC50 of 0.0823 µM.
`O=C(O)[C@@H]1CCCN1C(=O)c1cc(Cl)c(OC[C@@H]2C[C@@H]3[C@H](C2)C3(F)F)cc1F` [Example 44] was tested, and the IC50 was no less than 10 µM.
`CN(CC(=O)O)C(=O)c1cc(C2CC2)c(OCC23CC4CC(CC(C4)C2)C3)cc1F` [Example 45, 2-(4-(adamantan-1-ylmethoxy)-5-cyclopropyl-2-fluoro-N-methylbenzamido)acetic acid] showed an IC50 of 8.4 µM.
`O=C(O)[C@@H]1C[C@H](O)CN1C(=O)c1cc(C2CC2)c(OCC23CC4CC(CC(C4)C2)C3)cc1F` [Example 46, (2S,4S)-1-[4-(1-adamantylmethoxy)-5-cyclopropyl-2-fluoro-benzoyl]-4-hydroxy-pyrrolidine-2-carboxylic acid] gave an IC50 of 0.15 µM.
`O=C(O)[C@H]1C[C@@H](O)CN1C(=O)c1cc(C2CC2)c(OCC23CC4CC(CC(C4)C2)C3)cc1F` [Example 47, (2R,4R)-1-[4-(1-adamantylmethoxy)-5-cyclopropyl-2-fluoro-benzoyl]-4-hydroxy-pyrrolidine-2-carboxylic acid] showed an IC50 of no less than 10 µM.
`O=C(O)[C@@H]1CCCN1C(=O)c1cc(Cl)c(Oc2cnc(OCC(F)(F)F)c(Cl)c2)cc1F` [Example 217, (S)-1-(5-Chloro-4-((5-chloro-6-(2,2,2-trifluoroethoxy)pyridin-3-yl)oxy)-2-fluorobenzoyl)pyrrolidine-2-carboxylic acid trifluoroacetate] was tested, and the IC50 was 2.7 µM.

The compounds below were run against T2, human NaV1.7 (Homo sapiens, UniProt Q15858) (assay: Patch voltage clamp electrophysiology assay (EP), NaV1.7). Settings: HEK-293 cells stably expressing NaV1.7 with β1 subunit; whole-cell patch clamp, membrane potential −60 mV (inactivated state).
T2 construct: permanently transfected with an expression vector containing the full-length cDNA coding for the desired human sodium channel α-subunit; expressed in transfected cells; host or cells: HEK-293
T2 sequence (Q15858 1-1977 isoform Q15858-3): as the sequence (Q15858 1-1977 isoform Q15858-3) above
T2 sequence (Q07699 19-218 partner): as the sequence (Q07699 19-218 partner) above
Format: cell-based
Description: The following patch voltage clamp electrophysiology studies were performed on representative compounds of the invention using human embryonic kidney cells (HEK), permanently transfected with an expression vector containing the full-length cDNA coding for the desired human sodium channel α-subunit, grown in culture media containing 10% FBS, 1% PSG, and 0.5 mg/mL G418 at 37° C. with 5% CO2. […] NaV1.7 and NaV1.5 cDNAs (NM_002977 and AC137587; SCN5A, respectively) were stably expressed in HEK-293 cells. The β1 subunit was coexpressed in both the NaV1.7 and NaV1.5 cell lines.
Sodium currents were measured using the patch clamp technique in the whole-cell configuration using either a PatchXpress automated voltage clamp or manually using an Axopatch 200B (Axon Instruments) or Model 2400 (A-M systems) amplifier. The manual voltage clamp protocol was as follows: Borosilicate glass micropipettes were fire-polished to a tip diameter yielding a resistance of 2-4 Mohms in the working solutions. The pipette was filled with a solution comprised of: 5 mM NaCl, 10 mM CsCl, 120 mM CsF, 0.1 mM CaCl2, 2 mM MgCl2, 10 mM HEPES, 10 mM EGTA; and adjusted to pH 7.2 with CsOH. The external solution had the following composition: 140 mM NaCl, 5 mM KCl, 2 mM CaCl2, 1 mM MgCl2, 10 mM HEPES; and adjusted to pH 7.4 with NaOH. In some studies, the external sodium was reduced by equimolar replacement with choline. Osmolarity in the CsF internal and NaCl external solutions was adjusted to 300 mOsm/kg and 310 mOsm/kg with glucose, respectively. All recordings were performed at ambient temperature in a bath chamber with a volume of 150 μL. Control sodium currents were measured in 0.5% DMSO. Controls and representative compounds of the invention were applied to the recording chamber through a 4-pinch or 8-pinch valve bath perfusion system manufactured by ALA Scientific Instruments.
Series resistance compensation was applied (60-80%). […] All statistics in this study are given as mean±SD.
The membrane potential was maintained at a voltage where inactivation of the channel is complete (which was −60 mV for both NaV1.7 and NaV1.5). The voltage is then stepped back to a very negative (Vhold=[…]) voltage for 20 ms and then a test pulse is applied to quantify the compound block. […] The percent decrease in sodium current following wash-on of compound was taken as the percent block of sodium channels.
With `O=C(O)[C@@H]1CCCN1C(=O)c1cc(C2CC2)c(OC2C3CC4CC2CC(Cl)(C4)C3)cc1F` (single isomer, unassigned) [Example 82] the IC50 was 1.8 µM.
`CN(CC(=O)O)C(=O)c1cc(C2CC2)c(OCC23CC4CC(CC(C4)C2)C3)cc1F` [Example 45, 2-(4-(adamantan-1-ylmethoxy)-5-cyclopropyl-2-fluoro-N-methylbenzamido)acetic acid] showed an IC50 of 11.7 µM.
`O=C(O)[C@@H]1C[C@H](O)CN1C(=O)c1cc(C2CC2)c(OCC23CC4CC(CC(C4)C2)C3)cc1F` [Example 46, (2S,4S)-1-[4-(1-adamantylmethoxy)-5-cyclopropyl-2-fluoro-benzoyl]-4-hydroxy-pyrrolidine-2-carboxylic acid] showed an IC50 of 0.87 µM.
Compound `O=C(O)[C@H]1C[C@@H](O)CN1C(=O)c1cc(C2CC2)c(OCC23CC4CC(CC(C4)C2)C3)cc1F` [Example 47, (2R,4R)-1-[4-(1-adamantylmethoxy)-5-cyclopropyl-2-fluoro-benzoyl]-4-hydroxy-pyrrolidine-2-carboxylic acid] has an IC50 of 16 µM.
